We go through four molecules from ChEMBL document CHEMBL1125968, “5-HT2 antagonist activity of 3-aminomethyltetralones” (Bioorg Med Chem Lett, 1991).

For assay [1], the target named is Serotonin 2 (5-HT2) receptor (Rattus norvegicus, UniProt P30994+P08909+P14842). Kind of assay: Tested for the binding affinity towards 5-HT2 receptor measured by [3H]ketanserin binding to frontal cerebral cortex membranes of rat. Format: tissue-based, Membrane.
The species named for assay [2] is Rattus norvegicus. Kind of assay: Tested for the antagonistic activity against serotonin-induced contractions in rat aorta ring strip of endothelium. Format: functional, organism-based. As to conditions: read-out: pA2 (converted).

As to `O=C(CCCN1CCN(CC2CC(=O)c3ccccc3C2)CC1)c1ccc(F)cc1` (stereo unspecified), in assay [1], the “Log Ki” value is -7.25.

`O=C(CCCN1CCN(CC2CC(=O)c3ccc(F)cc3C2)CC1)c1ccc(F)cc1` (stereo unspecified): the Kb in assay [2] was 0.0562 µM. Moreover, the “Log Ki” value in assay [1] is on record as -7.29.

Turning to `COc1ccccc1N1CCN(CC2CC(=O)c3ccccc3C2)CC1` (stereo unspecified), in assay [2], the Kb was 0.513 µM. Further, in assay [1], the “Log Ki” value is on record as -6.48.

On to `O=C1CC(CN2CCC(C(=O)c3ccc(F)cc3)CC2)Cc2ccccc21` (stereo unspecified), for which the Kb in assay [2] was 0.0138 µM.
